# Source: patent US20210284691A1, “CBX8 CHROMDOMAIN INHIBITORS AND THE USES THEREOF” (Purdue Research Foundation, priority 2019, published 2021)
# Square brackets hold non-standard residues; d marks the D form. Peptide text beside a SMILES is read from it. * marks the point of attachment. Tyr(3-Cl) = N[C@@H](Cc1ccc(O)c(Cl)c1)C(=O)O; Benzoyl(3,5-Cl2) = O=C(c1cc(Cl)cc(Cl)c1)*; Lys(Et2) = CCN(CC)CCCC[C@H](N)C(=O)O; Gly(cPent) = N[C@H](C(=O)O)C1CCCC1; NH(propargyl) = C#CCN*
# Tests used:
# Assay type in all cases: cell-based
# [1] = target: T1, CBX7 binding to chromatin (Homo sapiens, UniProt O95931); test: ChIP-qPCR in Hs68 fibroblast cells; details: 100 μM, 4 h
# T1 construct: endogenous in cells; host or cells: Hs68 fibroblasts (A17); HEK293T (A20)
# T1 sequence (O95931 whole entry): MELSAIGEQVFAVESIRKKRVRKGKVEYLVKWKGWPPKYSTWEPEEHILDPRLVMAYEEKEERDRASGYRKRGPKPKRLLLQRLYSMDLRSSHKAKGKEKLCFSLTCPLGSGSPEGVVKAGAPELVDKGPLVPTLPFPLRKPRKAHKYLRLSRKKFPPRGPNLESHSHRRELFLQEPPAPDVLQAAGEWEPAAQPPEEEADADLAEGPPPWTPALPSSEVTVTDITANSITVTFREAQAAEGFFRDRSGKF
# Experimental: ChIP: Hs68 cells were seeded at 4×10^6 in a 10 cm cell culture plates 16 hours prior to treatment. Cells were treated with 100 μM SW2-110A or DMSO for four hours. ChIP was performed as described in Connelly et al., 2018. Birefly, cells were washed with PBS and fixed on the plate with CiA Fix buffer (50 mM HEPES, pH 8.0, 1 mM EDTA, 0.5 mM ETGA, 100 mM NaCl) and 1% formaldehyde for 10 min at room temperature. Crosslinking was quenched with 0.125 M glycine for 5 min at 4° C. Cells were washed once with PBS and lifted off the plate then resuspended in CiA NP Rinse buffer 1 (50 mM HEPES pH 8.0, 140 mM NaCl, 1 mM EDTA, 10% glycerol, 0.5% NP-40, 0.25% Triton X) for 10 min. Cells were pelleted at 1200×g for 5 min at 4° C. The supernatant was removed, and the cells were resuspended in CiA NP rinse buffer 2 (10 mM Tris pH 8.0, 1 mM EDTA, 0.5 mM EGTA, 200 mM NaCl). Cells were collected by centrifugation, 1200×g for 5 min. Supernatant was removed and the cells were washed twice with shearing buffer (0.1% SDS, 1 mM EDTA, 10 mM Tris HCl, pH 8.0). Cells were resuspended in shearing buffer and sonicated for 7 min with the probe (Branson). Lysate was centrifuged at 21,000×g for 15 min to remove debris. […]
# qPCR: qPCR was performed on the isolated ChIP DNA using SYBR master mix (Thermo) and run on the BioRad CFX thermo cycler. […] Enrichment was determined by percent input. […]
# [2] = target: T2, CBX8 bulk chromatin binding (Homo sapiens, UniProt Q9HC52); test: Sequential salt extraction (SSE) in HEK293T cells; details: 10 μM
# T2 construct: endogenous in cells; host or cells: HEK293T (A19)
# T2 sequence (Q9HC52 whole entry): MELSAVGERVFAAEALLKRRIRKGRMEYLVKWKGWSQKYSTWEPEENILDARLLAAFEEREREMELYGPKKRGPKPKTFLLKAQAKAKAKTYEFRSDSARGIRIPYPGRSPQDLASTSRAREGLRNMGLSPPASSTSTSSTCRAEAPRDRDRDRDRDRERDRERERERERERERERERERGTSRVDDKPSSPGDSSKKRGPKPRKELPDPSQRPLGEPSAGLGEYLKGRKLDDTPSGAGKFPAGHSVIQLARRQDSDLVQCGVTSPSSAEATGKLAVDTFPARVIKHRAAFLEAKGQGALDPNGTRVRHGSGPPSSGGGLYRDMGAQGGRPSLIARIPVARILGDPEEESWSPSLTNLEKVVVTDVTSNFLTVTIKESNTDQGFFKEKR
# Text: Sequential Salt Extraction. […] In this assay, bulk chromatin is sequentially resuspended in increasing concentrations of sodium chloride, and the proteins eluted with each wash are quantified using immunoblotting.
# Next day, media was removed and cells were washed with PBS. […] After the 4-hour pretreatment, media was removed and cells were washed again with PBS. Cells were harvested and washed with PBS. (Note: it is critical to balance the cell numbers the same in the peptide treated group and the DMSO treated control group.) Cells were resuspended in 1 mL Buffer A (25 mM HEPES, 25 mM KCl, 5 mM MgCla, 0.1% NP-40, 10% Glycerol, 0.05 M EDTA, pH 7.8, plus protease inhibitor) was added to the cell pellet from centrifuge and rotated at 4° C. for 10 minutes (Porter et al.). Cells were spun down at 6500×g for 5 min at 4° C. […] (Note: it is critical to maintain the consistence for all washing steps with the subsequent NaCl containing mRIPA buffers) Then the sample was centrifuged for 3 min at 6500×g. The supernatant was saved in a separate tube, labeled as “0 mM fraction”—0 mM sequential salt extraction washing supernatant. […] The procedures for OmM was repeated for each salt concentrations in the subsequent washes. All washing supernatants were saved and labeled. […] ImageJ was employed to quantitate the protein bands.
# [3] = tested on: KLK3/TMPRSS2/AR/CBX2 expression; test: Transcriptional fold change in LNCaP_NED cells; details: 10 μM or 50 μM, 48 hours
# Text: FIG. 12A). Neuroendocrine differentiation (NED) of prostate cancer induced by androgen deprivation. Representative pictures of LNCaP cells treated with normal media or charcoal-stripped serum (CSS) media for 6 days to induce neuroendocrine differentiation (LNCaP_NED). FIG. 12B). Transcriptional fold changes of KLK3/TMPRSS2/ENO2/CHGA were quantified normalized to control gene YWHAZ upon CSS media treatment for 6 or 9 days. FIG. 12C). Western blotting of CBX paralogs in LNCaP and LNCaP_NED cells generated from 14-day CSS treatment. FIG. 12D). Cell proliferation of LNCaP_NED following 5 days incubation with 2 or 10 μM SW2_152F. DMSO was used as negative control. FIG. 12E). LNCaP_NED cells were treated with 10 μM SW2_152F for 24 h-96 h. Cell morphology pictures were captured starting from 24 h. Average cell size were plotted at 24 h or 48 h for both DMSO group and compound treated group. FIG. 12F). LNCaP_NED cells were treated with 10 μM or 50 μM SW2_152F for 48 hours. […] Binding of H3K27me3 and CBX2 at specific genomic sites (KLK3/TMPRSS2, e: enhancer, p: promoter) were evaluated using chromatin immunoprecipitation-qPCR. For all experiments in the figure, error bars represent SEM n=3 biological replicates, p-values were calculated using two-tailed Student's t-test, *=p<0.05, **=p<0.01, ***=p<0.001, ****=p<0.0001. […]
compound,measurement,setting,value
"C#CCNC(=O)[C@H](CO)NC(=O)[C@H](CCCCN(CC)CC)NC(=O)[C@@H](NC(=O)[C@@H](NC(=O)[C@H](Cc1ccc(O)c(Cl)c1)NC(=O)c1cc(Cl)cc(Cl)c1)C1CCCC1)[C@@H](C)CC [SW2_152F] ({Benzoyl(3,5-Cl2)}-[Tyr(3-Cl)][Gly(cPent)]I[Lys(Et2)]S-{NH(propargyl)})","CBX7 binding at target loci, ChIP-qPCR",[1],not CBX7 binding
same,"CBX8 binding to chromatin, SSE",[2],only a modest change
same,CBX2 expression,[3],remained unchanged
same,expression of AR and AR-target genes (TMPRSS2 and KLK3),[3],significantly increased
